Patent US9085554B2, “Method of evaluating pharmaceutical preparation containing luliconazole and index substance” (POLA PHARMA INC., priority 2013, dated 2015)

Key:
fungi = assay: Antifungal activity of the amide form
[1] = Severe test / accelerated test of luliconazole as the active ingredient; assay type: physicochemical
Description: Further, it is considered that this amide form is produced by the addition of water with respect to a cyano group of the luliconazole. […] Namely, the presence of the amide form is speculated; however, the substance thereof has not been understood. Accordingly, it is difficult to speculate in the stage of manufacturing the pharmaceutical preparation that such a compound may be produced under a storage condition depending on the type of the solvent.
The severe condition herein refers to a storage condition at 60° C. for 3 weeks, and the accelerated condition herein refers to a storage condition at 40° C. for 6 months. The stability of a pharmaceutical preparation containing luliconazole has shown very good consistency between the severe condition and the accelerated condition. Accordingly, either of the conditions can be used. Further, the storage at 40° C. for 6 months is known as a condition substitutable for the condition at a room temperature for 3 years in an application for manufacturing approval of a pharmaceutical.
It is known that water is usually readily added to a cyano group by an acid or a base and the amide form is thereby produced. However, this generality is not applicable in the case of luliconazole, for the following reason. […]

| Compound | Antifungal activity (fungi) | Production of SE form and Z form ([1]; accelerated test and/or severe test) | Production of amide form from luliconazole active ingredient ([1]; severe test (60° C., 3 weeks) or accelerated test (40° C., 6 months) of the active ingredient) |
| --- | --- | --- | --- |
| NC(=O)/C(=C1/SC[C@@H](c2ccc(Cl)cc2Cl)S1)n1ccnc1 [amide form, [R-(E)]-α-[4-(2,4-dichlorophenyl)-1,3-dithiolan-2-ylidene]-1H-imidazole-1-acetamide] | low |  |  |
| N#C/C(=C1/SC[C@@H](c2ccc(Cl)cc2Cl)S1)n1ccnc1 [luliconazole, Luliconazole] |  | relatively readily produced | hardly produced |
